# ChEMBL document CHEMBL1157539, “Thousands of chemical starting points for antimalarial lead identification” (Nature, 2010)
# Values joined by “and” are separate entries in the source; they are usually repeats but may differ in a detail not shown here. Equal entries are not always repeated.
# Test system: Plasmodium falciparum
# Test: GSK_TCMDC: Inhibition of Plasmodium falciparum 3D7 in whole erythrocytes, using parasite LDH activity as an index of growth.
# Format: functional, organism-based
# Conditions: not given
row,SMILES,XC50
1,O=C(/C=C/c1ccc(C(F)(F)F)cc1)NC1CCC(CN2CCC(c3c[nH]c4ccccc34)CC2)CC1 (stereo not given),964 nM and 369 nM

# Same assay, conditions: Plasmodium falciparum, 3D7
row,SMILES,XC50
1,COc1ccc2nccc([C@@H](O)CN3CCC(NCCOc4cccc(C(F)(F)F)c4)CC3)c2c1,159 nM
2,COc1ccc(-c2ccc(NC(=O)c3cccc(Cl)c3)cc2)cc1CN1CCCC1,705 nM
3,COc1ccc(-c2c3c(=O)n(C)c(=O)n(C)c3c3nnc4ccccc4n23)cc1,991 nM
4,O=C(NCCC1CCN(CCc2c[nH]c3ccccc23)CC1)Nc1ccc(Cl)c(Cl)c1,834 nM
5,CCN1CCN(C(=O)NC(C(=O)N2CCCC(COc3ccc(Cc4ccccc4)cc3)C2)c2cccs2)C(=O)C1=O (stereo not given),479 nM
6,N#Cc1ccc(C(=O)Nc2ccc(Cl)c(N3CCN(CCc4ccccc4)CC3)c2)cc1,929 nM
7,CCC(C)C#Cc1c(C)nc(N)nc1N (stereo not given),262 nM
8,Cc1ccc(CN2CCCN(Cc3cccc(NC(=O)c4cc5ccccc5s4)c3)CC2)cc1,1190 nM
9,Cc1cc(NC2CCCC2)nc(Nc2ccc(F)cc2)n1,471 nM
10,COc1ccc(C(=O)N2CCc3cc4nccc(N5CCN6CCC[C@H]6C5)c4cc32)cc1,948 nM
11,Cc1cccc2nc(-c3ccc(-c4cccc(CN5CCN(c6ccncc6)CC5)c4)s3)[nH]c12,126 nM
12,CCCCCCN1CCC(NCc2ccc(OCCN3CCCC3)cc2)CC1,719 nM
13,COc1ccc2nccc(N(C)CC3(O)CCC(NCc4cc5c(cn4)OCCO5)CC3)c2n1 (stereo not given),675 nM
14,CCCCc1ccc(C(=O)NC2CCN(C[C@H](O)c3ccnc4ccc(OC)cc34)CC2)cc1,728 nM
15,O=C1CCCN1CCCNCc1ccc(-c2ccc(-c3nc4cc(C(F)(F)F)ccc4[nH]3)cc2)cc1,583 nM
16,COc1ccc(C2CC(=O)C3=C(C2)NC(C)=C(C(=O)OC(C)C)C3c2c(F)cccc2Cl)cc1OC (stereo not given),824 nM
17,Cc1cccc(-c2nc(Nc3ccncc3)c3ccc([N+](=O)[O-])cc3n2)n1,831 nM
18,CC(C)NCc1ccc(OCc2cccc(COc3ccc(CNC(C)C)cc3I)c2)c(I)c1,92 nM
19,O=C(Nc1cccc(OCCN2CCCC2)c1)Nc1ccc(Cl)c(Cl)c1,775 nM
20,CC(C)CNCc1ccc(-c2ccc(CN(CCCN3CCN(C)CC3)C(=O)CCC3CCCC3)cc2)cc1,1060 nM
21,Clc1cccnc1N1CCN(c2ncccc2Cl)CC1,147 nM
22,O=C(N[C@@H](Cc1ccccc1)CN1CCC(Oc2ccc(F)cc2)CC1)c1ccc(OCCCN2CCCCC2)cc1,885 nM
23,O=C(NC1CCN(Cc2ccccc2O)C1)c1ccc(Cl)c(Cl)c1 (stereo not given),894 nM

row,SMILES,XC50
1,COc1c(OC)c(OC)c2ccccc2c1CNCCCCCCNCc1c(OC)c(OC)c(OC)c2ccccc12,759 nM
2,CC(C)(Oc1ccc(Cl)cc1)C(=O)NCCC1CCN(CCCCCNC(=O)/C=C/c2ccc(Cl)c(Cl)c2)CC1,936 nM
3,Cc1c(C(=O)N(C)C)sc2c1c(=O)n(Cc1ccccc1)c(=O)n2CC(=O)Nc1ccccc1F,657 nM
4,Cc1c[nH]c2cc(/C=C/C(=O)NC3CCC(CCN4CCc5ccc(C#N)cc5CC4)CC3)ccc12 (stereo not given),801 nM
5,CCOC(=O)C(C)(C)Oc1ccc(CN(Cc2ccc(CC(C)C)cc2)C(=O)Nc2ccc(F)cc2F)c(OC)c1,238 nM
6,CNC(=O)c1cncc(/C=C/c2ccccc2S(N)(=O)=O)c1,694 nM
7,C#CCNC(=O)c1ccc(-c2ccnc(Nc3cccc(CCCN4CCOCC4)c3)n2)s1,1000 nM
8,O=c1cc(NCCCNCc2cn(S(=O)(=O)c3ccccc3)c3ccccc23)[nH]c2ccccc12,879 nM
9,Clc1ccc2c(NCc3ccccn3)ccnc2c1,664 nM
10,Cc1ccc2[nH]c(C)cc(=NN=Cc3ccccc3F)c2c1,171 nM
11,C[C@@H](CC1CCCCC1)NCc1cccc(NS(=O)(=O)c2ccc(O)c(-c3ccno3)c2)c1,376 nM
12,COc1ccc(CNC2CCN(C)CC2)cc1-c1ccc(S(=O)(=O)NCc2ccccc2)s1,230 nM
13,CN(C)CC(O)COc1ccc(Nc2ncc([N+](=O)[O-])c(Nc3ccccc3O)n2)cc1 (stereo not given),762 nM
14,CC(C)c1ccc(NC(=O)c2cccc(CN3CCCN(Cc4cccc(C#N)c4)CC3)c2)cc1,948 nM
15,Cc1cccc2nc(-c3ccc(-c4cccc(NC(=O)C(C)CN(C)C)c4)cc3)[nH]c12 (stereo not given),652 nM
16,CCCCNCc1ccc(OCc2cccc(COc3ccc(CNCCCC)cc3)c2)cc1,318 nM
17,COc1cccc2cc(C(=O)N[C@@H](CC(C)C)C(=O)N[C@H](/C=N/N3C(=O)CN(Cc4ccccc4)C3=O)CCc3ccccc3)oc12,618 nM
18,Cc1nc2ccc([N+](=O)[O-])cc2c(=O)n1OCc1ccccc1,208 nM
19,C=CCOc1ccccc1CNCC(O)c1cccc(C(F)(F)F)c1 (stereo not given),845 nM
20,O=C(/C=C/c1ccc(Cl)c(Cl)c1)NC1CCN(Cc2ccc(O)cc2)C1 (stereo not given),952 nM
21,CCc1cn2c3c(cc(C(=O)N[C@@H](Cc4cccc(Cl)c4)[C@H](O)CNC4CCCCC4)cc13)N(C)S(=O)(=O)CC2,57.1 nM
22,CCCCN(C(=O)c1ccccc1C)c1nnc(-c2ccccc2C)s1,927 nM
23,Cc1cccc2nc(-c3cccc(-c4cccc(NC(=O)c5cnccc5C(F)(F)F)c4)c3)[nH]c12,659 nM

row,SMILES,XC50
1,COc1ccc(CN2CCN(CCCCNC(=O)c3ccc(NC(=O)c4ccc(Cl)cc4)cc3)CC2)c(OC)c1,890 nM
2,O=C(Nc1cccc(F)c1)c1ccc(C(=O)NC2CCN(CC3CCCCC3)C2)cc1 (stereo not given),929 nM
3,COc1ccccc1-c1csc(C(=O)NCC2CCN(Cc3ccc(C(C)(C)C)cc3)C2)c1 (stereo not given),1110 nM
4,O=C(Nc1cccc(-c2cccc(-c3nc4ccccc4[nH]3)c2)c1)Nc1ccc(Cl)c(Cl)c1,131 nM
5,Cc1cccc2nc(-c3cccc(-c4cccc(NC(=O)c5ccncc5)c4)c3)[nH]c12,236 nM
6,CCCC(CC)n1ccc2c3c(N)nc(N)nc3ccc21 (stereo not given),5.92 nM
7,CCC(C)(C)NC(C)C(O)c1ccc(C(F)(F)F)cc1 (stereo not given),750 nM
8,O=C(Nc1ccc(F)cc1F)NC1CCN(CCCCCNC(=O)C2CC2c2ccc(Cl)c(Cl)c2)CC1 (stereo not given),496 nM
9,Cc1cccc(OCC2CCN(c3ncc(C(=O)NC4CC4)cc3Cl)CC2)c1,1330 nM
10,Cc1cc(N(C)CCCN(C)C)nc(Nc2ccc(Br)cc2)n1,643 nM
11,FC(F)(F)c1ccc(CSc2ccc3nnc(-c4ccccn4)n3n2)cc1,817 nM
12,c1cncc(CCNCc2ccc(-c3ccc(-c4nc5ccccc5[nH]4)s3)cc2)c1,213 nM
13,CCOc1c(CNCCCCCCNCc2ccc3ccccc3c2OCC)ccc2ccccc12,759 nM
14,Oc1ccc(CC2CCCN(c3nc(NCCCOc4ccccc4-c4ccccc4)nc(N4CCNCC4)n3)C2)cc1 (stereo not given),916 nM
15,O=C(NC1CCN(Cc2ccc(F)cc2)CC1)c1ccc(-c2cccc(C(F)(F)F)c2)s1,1360 nM
16,CCCCCn1c(Sc2ccc(C#N)c([N+](=O)[O-])c2)nnc1-c1cccs1,777 nM
17,CC(C)N1CCC(N(Cc2ccc(-c3ccc(C(F)(F)F)cc3)cc2)C(=O)Cn2c(SCc3cccc(F)c3F)cc(=O)c3ccccc32)CC1,817 nM
18,COc1ccc(C=CC(=O)NC(=O)c2ccccc2OC(=O)c2ccccc2)cc1OC,910 nM
19,Cc1cccc2nc(-c3cccc(-c4cccc(CNCc5cnn(-c6ccccc6)n5)c4)c3)[nH]c12,663 nM
20,COc1ccc2ncc(F)c(CCN3CC[C@H](NCc4cc5c(s4)CCCN5)[C@H](O)C3)c2n1,962 nM
21,CN(c1ccc2c(c1)nc(Nc1ccc(Cl)cc1)n2C)c1ccnc(Nc2ccc(CS(C)(=O)=O)cc2)n1,758 nM
22,CCCOC(=O)c1ccc(OCCCON2C(=N)N=C(N)NC2(C)C)cc1,3.2 nM
23,c1ccc(-c2nc(Nc3nc4ccccc4[nH]3)[nH]c2-c2ccccc2)cc1,619 nM
